From patent US9428815B2, “HIV-1 reverse transcriptase codon deletion and its use in the management and treatment of HIV infections” (Emory University, priority 2007, dated 2016)

How the values were obtained:
[1] = test system: HIVs68Δ-23 (S68del virus isolated at week 23); test: 3H-TTP RT incorporation assay, drug susceptibility of in vitro-selected S68del virus in human PBM cells; format: cell-based, HIV-1; conditions: for EC50 / EC90: Human immunodeficiency virus 1, PBMC, HIVs68Δ-23 in human PBM cells, averages of 2-6 independent experiments; for resistance of S68del (in words): S68del mutant HIV, summary statement; for HIVs68Δ-23 susceptibility (in words): NNRTI / PI
Procedure: Peripheral blood mononuclear (PBM) cells were separated by ficoll-hypaque (Histopaque 1077: Sigma) density gradient centrifugation from Buffy coats obtained from the American Red Cross (Atlanta, Ga.). Buffy coats were derived from healthy seronegative donors. Cells were activated with 3 μg/ml phytohaemagglutinin A (Sigma-Aldrich, St. Louis, Mo.) in 500 ml of RPMI-1640 (Mediatech Inc., Herndon, Va.) containing 100 ml heat-inactivated fetal bovine serum (Hyclone), 83.3 IU/ml penicillin, 83.3 μg/ml streptomycin, 1.6 mM L-glutamine (Mediatech Inc., Herndon, Va.), for 2-3 days prior to use.
Drug resistance of the S68del virus isolated at week 23 (HIVs68Δ-23) was measured with the 3H-TTP RT incorporation assay in human PBM cells (Schinazi, et al., Antimicrob. Agents Chemother. 1990; 34:1061-1067; Stuyver et al., Antimicrob. Agents Chemother. 2002; 46:3854-60). HIVs68Δ-23 was population sequenced to ensure the dominant population was the deletion at codon 68. […] The susceptibility of the S68del virus to several nucleoside reverse transcriptase inhibitors (NRTI), a non-nucleoside reverse transcriptase inhibitor (NNRTI) and a protease inhibitor (PI) was tested. Fold increases were measured relative to HIVLAI (Table 4, FIGS. 2 and 3). Data are the averages of 2-6 independent experiments.

pNL4-3 = test: Quantitative HIV-1 real-time PCR assay in human PBM cells, pNL4-3 virus; format: cell-based; conditions: Human immunodeficiency virus 1, PBMC, pNL4-3 in human PBM cells
From the text: The real-time PCR assay for quantifying virus levels in PBM cells serves as a more sensitive method for measuring drug resistance of S68del HIV-1 than other standard methods. SK38 Primer: ATAATCCACCTATCCCAGTAGGAGAAAT (SEQ ID NO: 1) and SK39 Primer: TTTGGTCCTTGTCTTATGTCCAGAATGC (SEQ ID NO: 2) were used in the real-time PCR assay. The presence of amplified product was detected with the SK19 probe: ATCCTGGGATTAAATAAAATAGTAAGAATGTATAG (SEQ ID NO: 3). […] Four concentrations were tested in duplicate for each data point.

S68delpNL4-3 = test: microbe, parasite or virus in culture; format: cell-based, HIV-1
From the text: An intermediate vector with a 4 kb fragment of pNL4-3 ([…]) containing the RT coding region was cloned into the pCR2.1 vector (Invitrogen). […] The HIV-1 fragment from the intermediate vector was digested with Spe I/Age I and subcloned into the full-length pNL4-3 vector. The S68del pNL4-3-based infectious clone was then transfected into HEK293T cells and supernatant was collected after 4 days. The supernatant obtained from HEK293T was used to infect fresh PBM cells, after which the HIV-1 virus pool was passaged to establish an infective pool.
Four concentrations were tested in duplicate for each data point.

[2] = target: T1, RT from virally-derived S68del (Human immunodeficiency virus type 1 group M subtype B, UniProt P03367, DEL667-667); test: Heteropolymeric-DNA colorimetric RT assay with 3.2 mM ATP, particle-derived S68del RT; format: biochemical, HIV-1
T1 construct: The resistance of RT derived from S68del and M184V particles; made in house; host or cells: crude virus pellet; the virus was passaged in human PBM cells
From the text: (§1) The principle and performance of the non-radioactive RT assay has been described (Lennerstrand et al., Antimicrob. Agents Chemother. 2007; 51:2078-2084). Separate kit components, such as covalently-linked DNA microtiter plates and tracer solution (alkaline phosphate (AP)-conjugated anti-BrdU antibody) were obtained from Cavidi Tech, Uppsala, Sweden. In brief, the 96-well microtiter plate used consisted of an 18 base heteropolymeric DNA primer covalently bound to the well. In the RT assay, the DNA primer is bound to a 50-base DNA template at 50 ng/well (190 nM) with a 5′-A12-3′ tail with a 5′-(GTCA)5-3′ repeat (Integrated DNA Technologies, USA). The RT assay reaction mixture (total volume 150 μl/well) contained: Hepes 50 mM, pH 7.3; MgCl2 10 mM; Triton X-100 0.5%; bovine serum albumin 0.1 mg/ml; dATP, dGTP, dCTP and 5-bromo-2′-deoxyuridine-5′-triphosphate (BrdUTP) at 1.0 μM each (where BrdUTP replaces TTP) (Sigma). To obtain ATP primer unblocking reaction in the assay, the ATP (Amersham/GE Health Care) was set to physiological concentration (3.2 mM). However, the ATP was only used in the assay with virus pellets as sample, not merely for primer unblocking reaction but to protect degradation of substrate in the crude sample. Furthermore, the dNTP level including BrdUTP was increased from 1 μM to 4 μM for the assay with the virus pellet samples. Subsequently, in the assay with recombinant purified RT enzyme, no ATP besides 1 μM dNTP was used.
(§2) The reaction was started with the addition of RT either as recombinant or crude virus pellet form in a similar activity range as previous published (Lennerstrand et al., Antimicrob. Agents Chemother. 2007; 51:2078-2084). The RT reaction mixture was incubated at 33° C. for 180 min and terminated by NaOH (to dehybridize the template) and water washing of the plates.

[3] = target: T2, Wild type Reverse Transcriptase (Human immunodeficiency virus type 1 group M subtype B, UniProt P12497); test: Heteropolymeric DNA polymerase RT assay in the absence of ATP, wild type RT; format: biochemical, HIV-1
T2 construct: The level of resistance to NRTI-TP by the S68del mutants compared to wild type RT
Procedure: The level of resistance to NRTI-TP by the S68del mutants compared to wild type RT was determined as IC50 values of RT activity in the absence of ATP (Table 6). […] The RT activity was linear during the assay time within the substrate range used, and thus steady state kinetics were assumed.

[4] = target: T3, Recombinant S68del Reverse Transcriptase (Human immunodeficiency virus type 1 group M subtype B, UniProt P12497, DEL655-655); test: Heteropolymeric DNA polymerase RT assay in the absence of ATP, recombinant S68del RT; format: biochemical, HIV-1
T3 construct: The amplified PCR product comprising the RT of pNL4-3 was ligated into the linearized pQE60; inferred from the pQE60 vector and the in-frame BglII site of the reverse primer without a stop codon) (C); made in house; host or cells: bacteria
Procedure: (§3) Nucleic acids were separated by gel electrophoresis in a TAE gel and extracted from bands using the Qiagen gel extraction kit. The 4.2 kb band from pNL4-3 containing the HIV-RT encoding sequences was ligated into the linearized pCR2.1, making the construct MC002. Site directed mutagenesis was performed on the MC002 plasmid. Primers used had the S68 codon AGT deleted, thus introducing the S68 deletion into the pNL4-3 RT background.
(§4) To ligate the RT of pNL4-3 comprising the deletion at S68 codon 68 into protein expression vector […] (Invitrogen), MC002 was amplified using forward primer 5′-[…]-3′ (SEQ ID NO: 10) and reverse primer 5′-[…] […]-3′ (SEQ ID NO: 11). The PCR product and pQE60 were digested with Bgl II and Nco I. The digested products were separated by gel electrophoresis nucleic acids in excised gel bands extracted using the Qiagen gel extraction kit. The amplified PCR product comprising the RT of pNL4-3 was ligated into the linearized pQE60. The ligation mix was transformed into chemically competent bacteria (Alpha-select). Plasmid DNA from selected transformants was extracted using a mini-prep kit (Qiagen). Plasmid DNA was sequenced in both directions to confirm the ligation.
as §1, §2

[5] = test system: Recombinant S68del Reverse Transcriptase; test: as above; format: biochemical, HIV-1; conditions: Recombinant S68del RT IC50 divided by wild type IC50
Procedure: as §3, §4, §1, §2

[6] = Human immunodeficiency virus 1, PBMC, S68del in pNL4-3, human PBM cells, real-time PCR

`Nc1nc(N)c2ncn([C@H]3CO[C@@H](CO)O3)c2n1` [DAPD, (−)-beta-D-2,6-diaminopurine dioxolane] was tested, and the “FI EC50 (fold increase in 50% effective concentration)” value ([1]; HIVs68Δ-23 relative to HIVLAI) was 38.2, the “FI EC90 (fold increase in 90% effective concentration)” value ([1]; HIVs68Δ-23 relative to HIVLAI) was 32.4 and the EC50 [1] was 7.9 µM. It also gave an EC90 [1] of 34.5 µM.
For `Nc1ccn([C@H]2CC[C@@H](CO)O2)c(=O)n1` [DDC, 2′,3′-dideoxycytidine], the EC50 [1] was 0.22 µM, the EC90 [1] was 0.93 µM and the “resistance of S68del (in words)” value [1] was “does not show increased resistance”.
For `OC[C@@H]1CC[C@H](n2cnc3c(O)ncnc32)O1` [DDI, 2′,3′-dideoxyinosine], the EC50 [1] was 0.63 µM, the EC90 [1] was 4.5 µM and the “resistance of S68del (in words)” value [1] was “does not show increased resistance”.
`Nc1nc(=O)n([C@H]2C=C[C@@H](CO)O2)cc1F` [DFC, β-D-2′,3′-didehydro-2′,3′-dideoxy-5-fluorocytidine] was tested, and the EC50 [1] was 1.1 µM, the EC90 [1] was 3.4 µM and the EC50 (pNL4-3) was 0.21 µM. For the same compound, the EC90 (pNL4-3) was 2.3 µM, the EC50 (S68delpNL4-3; [6]) was 3.1 µM and the EC90 (S68delpNL4-3; [6]) was 8.5 µM. For the same compound, the “FI50, Fold Increase for S68del in 50% effective concentration” value (S68delpNL4-3; S68del in pNL4-3 versus pNL4-3) was 14.7, the “FI90, Fold Increase for S68del in 90% effective concentration” value (S68delpNL4-3; S68del in pNL4-3 versus pNL4-3) was 3.7 and the “resistance of S68delpNL4-3 (in words)” value (S68delpNL4-3; real-time PCR, human PBM cells) was “increased resistance”. The “resistance of S68del RT (in words)” value ([2]; particle-derived RT, 3.2 mM ATP, FIG. 5) was “increased resistance”.
In the case of `Nc1nc(=O)n(C2C=CC(COP(=O)(O)OP(=O)(O)OP(=O)(O)O)O2)cc1F` (stereo not drawn) [DFC-TP], the “fold increase in resistance” value ([2]; virally-derived S68del RT, relative to HIVLAI, enzymatic assay) is reported as 5.6 fold, the IC50 ([3]; Wild type RT) is reported as 0.14 ± 0.02 µM and the Fold-incr ([3]; Wild type RT (reference)) is reported as 1.0. The IC50 [4] was 1.1 ± 0.2 µM and the Fold-incr [5] was 7.9.
For `Cc1cccc(C)c1OCC(=O)N[C@@H](Cc1ccccc1)[C@@H](O)C[C@H](Cc1ccccc1)NC(=O)[C@H](C(C)C)N1CCCNC1=O` [Lopinavir], the EC50 [1] was 0.006 µM, the EC90 [1] was 0.019 µM and the “HIVs68Δ-23 susceptibility (in words)” value [1] was “not significantly changed”.
For `O=C1Nc2ccc(Cl)cc2[C@@](C#CC2CC2)(C(F)(F)F)O1` [Sustiva, (S)-6-chloro-4-cyclopropylethynyl-4-trifluoromethyl-1,4-dihydro-2H-3,1-b-enzoxazin-2-one], the EC50 [1] was 0.00039 µM, the EC90 [1] was 0.0035 µM and the “HIVs68Δ-23 susceptibility (in words)” value [1] was “not significantly changed”.
For `CC(C)OC(=O)OCOP(=O)(CO[C@H](C)Cn1cnc2c(N)ncnc21)OCOC(=O)OC(C)C.O=C(O)/C=C/C(=O)O` [TDF, 9-[(R)-2-[[bis[[(isopropoxycarbonyl)oxy]methoxy]phosphinyl]methoxy]propyl]adenine fumarate], the EC50 [1] was 0.43 µM and the EC90 [1] was 1.6 µM.
